Test results from patent US8883841B2, “Oncogenic ras-specific cytotoxic compound and methods of use thereof” (The Board of Regents of the University of Texas System, priority 2005, dated 2014).
Entries after “also recorded” stand apart in the source; their conditions may differ. Like-named read-outs stand apart in the source and are kept apart here.

Assays:
[1] = tested on: Raf-1, Akt, PKCzeta, PKCdelta, and p53; experiment: Immunohistochemical staining, subcellular localization of Raf-1, Akt, PKCzeta, PKCdelta, p53; format: cell-based, human; settings: T29Kt1 or H460 cells, 12 h
Experimental: Effects on subcellular localization of PKCiota. […] To further investigate molecular mechanisms of Oncrasin action the inventors studied the subcellular localization of several molecules involved in Ras-signaling pathway because the functions of Ras and other proteins are directly related to their subcellular localizations. For this purpose, T29Kt1 or H460 cells were seeded on cover glass slides and treated with DMSO or Oncrasin-1 for 12 h. Cells were then fixed with paraformaldehyde, permeabilized with Triton X-100 and stained with various antibodies for immunohistochemical examination. […] Nevertheless, substantial subcellular localization change was detected for PKCiota after Oncrasin-1 treatment (FIG. 6). In both H460 and T29Kt1 cells, both PKCiota and PKCzeta were diffusely distributed in cells with high concentration on cell membrane in nucleus, consisting with previous reports that aPKC contains both nuclear localization signal (NLS) and nuclear export signal (NES), and can shuttle between cytoplasm and nucleus, which was regulated by intramolecular conformational changes, phosphorylation or by treatment with growth factors (Perander et al., 2001; White et al., 2002; Neri et al., 1999). […] Such aggregation of PKCiota was not observed in Oncrasin-resistant T29 and H1299 cells. […]

caspase-3 and caspase-8 = experiment: Western blot for cleavage/activation of caspase-3 and caspase-8 in H460 cells; format: cell-based, human; settings: 1 μM, 6 to 24 h, listed as Oncrasin-1
Experimental: Apoptosis induction in H460 cells was also analyzed. H460 cells were treated with 1 μM of Oncrasin-1 for 6 to 24 h. Cells treated with DMSO were used as controls. The cell lysates were then used for a western blot assay to detect the cleavage of caspase-3 and caspase-8. […] After treatment with Oncrasin-1, the expression of some molecules involved in Ras signaling pathways was also evaluated. […] Active Raf-1 can be translocated to mitochondria where it executes antiapoptosis signaling by interaction with Bad or other protein substrates. Raf-1 is also a pivotal regulator of endothelial cell survival during angiogenesis. Ablation of Raf-1 renders cells hypersensitive to apoptosis despite normal regulation of extracellular signal-regulated kinases. Thus, it is possible to induce antitumor activity by suppressing raf-1.
Induction of apoptosis by Oncrasin. Many antitumor therapies act by inducing apoptosis in tumor cells (Fisher, 1994; Thompson, 1995). To determine whether the antitumor activity of Oncrasin-1 is due to the suppression of cell proliferation or to cell killing, T29, T29Kt1, and H460 cells were stained with annexin V/propidium iodide (PI) after treatment with Oncrasin-1 at 30 μM (for T29 or T29Kt1 cells) or 3 μM (for H460 cells). […]

[2] = tested on: PKCiota knockdown T29Kt1 cells; experiment: Cell viability in stable PKCiota knockdown T29Kt1 cells; format: cell-based, human
Experimental: Knockdown of PKCiota suppressed Oncrasin-mediated apoptosis and cytotoxicity. To investigate possible role of PCKiota in Oncrasin-1 mediated cytotoxicity, PKCiota was knocked down in H460 cells by using oligo ribonucleotides. H460 cells were treated with 200 pM PKCiota siRNA for 24 h, and then with DMSO or 1 μM Oncrasin for another 12 h. After that, cells harvested for analysis of apoptosis by fluorescence-activated cell sorting (FACS) and for expression of PKCiota by Western blot analysis. […] To further study the effect of atypical PKC in Oncrasin-induced cytotoxicity, the inventors obtained plasmids encoding PKCiota and PKCzeta siRNA from Origene Corporation and made stable PKCiota and PKCzeta knockdown T29Kt1 cells. […] The IC50 in PKCiota knockdown T29Kt1 cells were 100 fold higher than parental T29K cells. […] Thus, compounds with synthetic lethality for PKCiota might be useful for treatment of those cancers.

[3] = tested on: TNFα-induced NFκB activation; experiment: NFκB reporter plasmid (pNFκB-Luc) luciferase assay in T29Kt1 cells; format: cell-based, human; settings: 10 μM, TNFα 1 ng/ml, 8 h
Experimental: FIGS. 11A-11C Suppression of TNFα-induced NFκB activation. NKκB reporter plasmid assay. T29K cells were transfected with pNFκB-Luc and pCMV-lacZ. 12 h later, the cells were treated with TNFα (1 ng/ml) with or without (FIG. 11A) Oncrasin-1 (10 μM) or (FIG. 11B) Sulindac (10 μm). The luciferase activity was determined at 8 h after the treatment and normalized with beta-gal activity. (FIG. 11C) H460 and T29K cells were treated with DMSO or different concentrations of Oncrasin-1 as indicated for 12 h, with or without TNFα (1 ng/ml). The NFκB activity was analyzed by EMSA.
Suppression of NFκB. In a separated study, the effect of Oncrasin compounds on NF-κB activity was assessed. Nuclear factor-κB (NF-κB)/Rel represents a group of structurally related and evolutionarily conserved transcriptional factors that play critical roles in chronic and acute inflammatory diseases, autoimmune diseases and various type of cancers (Karin and Neriah, 2000; Karin and Karin, 2006; Barnes et al., 1997). In unstimulated cells, most NF-κB/Rel dimers are bound to IκBs and retained in the cytoplasm. Upon a various stimulations, IκBs are phosphorylated and rapidly degraded, releasing NF-κB, which then enters the nucleus and executes transcriptional functions. […] The luciferase activity was determined and normalized for transfection with beta-galactosidase activity. […]

## O=Cc1cn(Cc2ccc(Cl)cc2)c2ccccc12 [Oncrasin K001, 1H-Indole-3-carboxaldehyde, 1-[(4-chlorophenyl)methyl]-(9CI)]
[1]
  subcellular localization of Raf-1, Akt, PKCzeta, PKCdelta, and p53: did not induce obvious changes
caspase-3 and caspase-8
  activation of caspase-3 and caspase-8: effectively activated caspase-3 and caspase-8; also recorded: Activation of caspase-3 and caspase-8 was detected; also recorded: effectively induce caspase-3 and caspase-8 activation
T29 cells; at 33 μM (the highest concentration tested)
  toxicity to T29 cells: not toxic
T29 cells; at any of the doses tested (dose response)
  toxicity to T29 cells: not toxic
T29 cells; up to 100 μM, the highest concentration tested
  cytotoxicity in T29 cells: no detectable cytotoxicity
[2]; cell viability analysis
  susceptibility of stable PKCiota knockdown T29Kt1 cells: almost complete resistance
[2]; stable knockdown
  IC50 in PKCiota knockdown T29Kt1 cells relative to parental T29K cells: 100 fold
[3]
  suppression of TNFα-induced NFκB activation (luciferase): more active than Sulindac
